Experimental findings from US9815788B2, “Anti-angiogenic compounds” (University College Dublin National University of Ireland, …, priority 2012, dated 2017) are described below.

In assay [1] the test system is OE33P radio-sensitive oesophageal adenocarcinoma cells. Nature of the assay: Cell number after 24 hours drug treatment (crystal violet absorbance), OE33P. In kind it is cell-based, human. The conditions noted are these: 10 μM. As for the experimental part: (§1) OE33P radio-sensitive and OE33R radio-resistant oesophageal adenocarcinoma cells were used to test the effects of the compounds 11B HCl, […], 11B CC16 HCl, 11B 471 and 11B 268 on cell number. Cells were maintained in RPMI media supplemented with 10% foetal calf serum, penicillin (100 U/ml) and streptomycin (100 gig/ml). A total of 11.000 or 13,000 cells, in 100 μl media, were seeded per well in 24 well plates and left to incubate for 24 hours, with an additional 150 μl media added after 5 hours. The media was replaced with solutions containing 10 μM of 11B HCl, 11B CC11 HCl, 11B CC16 HCl, 11B 471, 11B 268 or fresh media as a control. Each drug had 6 replicates. After 24 hours of treatment, the cells were fixed with 1% glutaraldehyde for 15 minutes and then stained with crystal violet for 30 minutes. The plates were blotted and dried overnight. The cells were resuspended with 1% TritonX-100 and shaken for 15 minutes. The absorbance was read on a spectrophotometer at 590 nm.
(§2) OE33P radiosensitive and OE33R radioresistant cells were used to test the effects of the compound 11B_Z_HCl on toxicity. Cells were maintained in RPMI media supplemented with 10% foetal calf serum, penicillin (100 U/ml) and streptomycin (100 μg/ml). A total of 11,000 cells, in 100 μl media, were seeded per well in 24 well plates and left to incubate for 24 hours, with an additional 150 μl media added after 5 hours. The media was replaced with solutions containing 10 μM of 11B_Z_HCl or fresh media as a control. Each treatment had 6 replicates. After 24 hours of treatment, the cells were fixed with 1% glutaraldehyde for 15 minutes and then stained with crystal violet for 30 minutes. The plates were blotted and dried overnight. The cells were resuspended with 1% TritonX-100 and shaken for 15 minutes. The absorbance was read on a spectrophotometer at 590 nm.

The test system of assay [2] is OE33P radiosensitive oesophageal adenocarcinoma cells. Briefly: Quantification of oxidative phosphorylation (OCR, Seahorse), OE33P. In kind it is cell-based, human. The conditions noted are these: 10 μM, 24 hours. How it is done: OE33P radiosensitive and OE33R radio-resistant oesophageal adenocarcinoma cells were used to test the effects of the compounds 11B HCl, 11B CC11 HCl, 11B CC16 HCl, 11B 471 and 11B 268 on oxidative phosphorylation. Cells were maintained in RPMI media supplemented with 10% foetal calf serum, penicillin (100 U/ml) and streptomycin (100 μg/ml). A total of 11,000-13,000 cells, in 100 μl media, were seeded per well in 24 well plates and left to incubate for 24 hours, with an additional 150 μl media added after 5 hours. The media was replaced with solutions containing 10 μM of 11B HCl, 11B CC11 HCl, 11B CC16 HCl, 11B 471, 11B 268 or fresh media as a control. Each drug had 6 replicates. After 24 hours of treatment, media was replaced with modified DMEM supplemented with 0.5 mM glucose. Rates of oxidative phosphorylation were determined using Seahorse Biosciences metabolism technology. The media was disposed and the cells washed with PBS. The cells were fixed with 1% glutaraldehyde for 15 minutes and then stained with crystal violet for 30 minutes. The plates were blotted and dried overnight. The cells were resuspended with 1% TritonX-100 and shaken for 15 minutes. The absorbance was read on a spectrophotometer at 595 nm. Rates of oxidative phosphorylation were then normalised to cell number.
OE33P radiosensitive and OE33R radioresistant oesophageal adenocarcinoma cells were used to test the effects of the compound 11B_Z_HCl on oxidative phosphorylation. Cells were maintained in RPMI media supplemented with 10%0/foetal calf serum, penicillin […]) and streptomycin (100 μg/ml). A total of 11,000 cells, in 100 μl media, were seeded per well in 24 well plates and left to incubate for 24 hours, with an additional 150 μl media added after 5 hours. The media was replaced with solutions containing 10 μM of 11B_Z_HCl or fresh media as a control. Each treatment had 6 replicates. After 24 hours of treatment, media was replaced with modified DMEM supplemented with 0.5 mM glucose. Rates of oxidative phosphorylation were determined using Seahorse Biosciences metabolism technology. Rates of oxidative phosphorylation were then normalised to cell number.

Assay [3] relates to OE33R radio-resistant oesophageal adenocarcinoma cells. Briefly: Cell number after 24 hours drug treatment (crystal violet absorbance), OE33R. In kind it is cell-based, human. The conditions noted are these: 10 μM. As for the experimental part: as §1, §2
The subject of assay [4] is zebrafish hyaloid vasculature. Briefly: Quantification of primary hyaloid vasculature branch number in Tg(fli1:EGFP) zebrafish. The format is in vivo. The settings on record: for dose-dependent inhibition of development of hyaloid vessels: decreasing doses 20, 10, 7.5, 5, 2.5, 1 and/or 0.5 μM; for inhibition of developmental angiogenesis of the hyaloid vasculature (number of primary hyaloid vessels): typically 10 μM or 5 μM, from 24 hpf, vs DMSO control. How it is done: (§3) All experiments were carried out under ethical approval granted by the UCD animal research ethics committee. Tg(fli1:EGFP) zebrafish were maintained according to standard procedures on a 14 hr light/10 hr dark cycle at 28° C. Embryos were obtained by natural spawning and developmental stages established by time and morphological criteria. […] Larvae were euthanised, and fixed in 4% PFA at 4° C. overnight before analysis.
Overall patterning of the vasculature (fin, gut and intersegmental vessels) was examined for abnormalities. Right lenses were dissected from the larvae and transferred to depression slides for observation under epi-fluorescence in the Olympus SZX16. Patterning of the hyaloid vessels on the treated larval lenses was compared to DMSO controls and the archetypal pattern previously described (Alvarez et al., 2007; Alvarez et al., 2009).
as §3, with “analysis. Lenses were dissected from the larvae and transferred to depression slides for observation under epi-fluorescence in the Olympus SZX16. Patterning of the hyaloid vessels on the treated larval lenses was compared to DMSO controls and the archetypal pattern previously described (Alvarez et al., 2007; Alvarez et al., 2009).” for “analysis.”

Assay [5] deals with zebrafish intersegmental vessels. Briefly: Quantification of intersegmental vessel number in zebrafish. The conditions noted are these: 10 μM, from 6 hpf. In kind it is in vivo. As for the experimental part:
[…] Larvae were manually dechorionated, euthanised, and fixed in 4% PFA at 4° C. overnight before analysis. The larvae were then washed with PBS and transferred to depression slides for observation under epi-fluorescence in an Olympus SZX16 fluorescent microscope. The number of intersegmental vessels was counted and the average number was graphed for each drug.
Larvae were manually dechorionated, euthanised, and fixed in 4% PFA at 4° C. overnight before analysis. The larvae were then washed with PBS and transferred to depression slides for observation under epi-fluorescence in an Olympus SZX16 fluorescent microscope. The number of intersegmental vessels was counted and the average number was graphed for each drug.

For assay [6], the system named is OE33R radio-resistant oesophageal adenocarcinoma cells. Briefly: Quantification of glycolysis (ECAR, Seahorse), OE33R. The format is cell-based, human. The conditions noted are these: 10 μM, 24 hours. As for the experimental part:
OE33P radio-sensitive and OE33R radio-resistant oesophageal adenocarcinoma cells were used to test the effects of compounds 11B HCl, 11B CC11 HCl, 11B CC16 HCl, 11B 471 and 11B 268 on glycolysis. Cells were maintained in RPMI media supplemented with 10% foetal calf serum, penicillin (100 U/ml) and streptomycin (100 μg/ml). A total of 11,000 or 13,000 cells, in 100 μl media, were seeded per well in 24 well plates and left to incubate for 24 hours, with an additional 150 μl media added after 5 hours. The media was replaced with solutions containing 10 μM of 11B HCl, […], 11B CC16 HCl, 11B 471, 11B 268 or fresh media as a control. Each drug had 6 replicates. After 24 hours of treatment, media was replaced with modified DMEM supplemented with 0.5 mM glucose. Rates of glycolysis were determined using Seahorse Biosciences metabolism technology. The media was disposed and the cells washed with PBS. The cells were fixed with 1% glutaraldehyde for 15 minutes and then stained with crystal violet for 30 minutes. The plates were blotted and dried overnight. The cells were resuspended with 1% TritonX-100 and shaken for 15 minutes. The absorbance was read on a spectrophotometer at 590 nm. Rates of glycolysis were then normalised to cell number.
OE33P radiosensitive oesophageal adenocarcinoma cells were used to test the effects of the compound 11B_ZHCl on glycolysis. Cells were maintained in RPMI media supplemented with 10% foetal calf serum, penicillin (100 U/ml) and streptomycin (100 μg/ml). A total of 11,000 cells, in 100 μl media, were seeded per well in 24 well plates and left to incubate for 24 hours, with an additional 150 μl media added after 5 hours. The media was replaced with solutions containing 10 μM of 11B_ZHCl or fresh media as a control. Each treatment had 6 replicates. After 24 hours of treatment, media was replaced with modified DMEM supplemented with 0.5 mM glucose. Rates of glycolysis were determined using Seahorse Biosciences metabolism technology. […] The absorbance was read on a spectrophotometer at 590 nm. […] No changes in ECAR were detected in OE33R treated cells.

Each structure is given as a SMILES string. “Also recorded” adds a separate entry of the source.

Consider `COc1ccccc1C=Cc1ccc2ccccc2n1` [Compound 11B-268, 2-(2-(2-Methoxyphenyl)vinyl)quinoline], for which the “cell number, measured by % absorbance” value in assay [1] and in assay [3] was “did not significantly reduce cell number” in each case. Also, the “oxygen consumption rate (OCR), a measure of oxidative phosphorylation” value in assay [2] is on record as “significantly reduce”. Besides, in assay [4], the “dose-dependent inhibition of development of hyaloid vessels” value is recorded as “dose-dependent effect; also recorded: inhibit developmental angiogenesis of zebrafish hyaloid vasculature in a dose-dependent statistically significant manner”. For the same molecule, the “inhibition of developmental angiogenesis of the hyaloid vasculature (number of primary hyaloid vessels)” value in assay [4] is listed as “inhibit developmental angiogenesis of the zebrafish hyaloid vasculature in a statistically significant manner”.
On to `C(=Cc1ccc2ccccc2n1)c1cccnc1` [Compound 11B-471, 2-[2-(3-pyridinyl)vinyl]quinoline], for which, in assay [5], the “inhibition of developmental angiogenesis of intersegmental vessels (number of intersegmental vessels)” value is on record as “inhibit developmental angiogenesis of zebrafish intersegmental vessels in a statistically significant manner”. For the same molecule, the “cell number, measured by % absorbance” value in assay [1] is listed as “did not significantly reduce cell number”. Further, the “cell number, measured by % absorbance” value in assay [3] is “did not significantly reduce cell number”. The “extracellular acidification rate (ECAR), a measure of glycolysis” value in assay [6] is “significantly reduce”. Further, in assay [4], the “dose-dependent inhibition of development of hyaloid vessels” value was “inhibit developmental angiogenesis of zebrafish hyaloid vasculature in a dose-dependent statistically significant manner” and the “inhibition of developmental angiogenesis of the hyaloid vasculature (number of primary hyaloid vessels)” value is listed as “inhibit developmental angiogenesis of the zebrafish hyaloid vasculature in a statistically significant manner”.
